Data published in patent US20090291442A1, “HSPA1A AS A MARKER FOR SENSITIVITY TO KSP INHIBITORS” (SMITHKLINE BEECHAM CORPORATION, priority 2006, published 2009).
Structures can show the parent of a compound that is named as a salt.

Key:
[1] = tested on: Wilm's tumor WT8 xenograft; assay: Outcome of human Wilm's tumor xenograft WT8 to KSP inhibitor; format: in vivo; details: Wilm's tumor xenograft WT8, known outcome
Procedure: (§1) Affymetrix® gene expression profiling was conducted to identify baseline expression patterns associated with sensitivity to the KSP inhibitor in human Wilm's tumor xenograft models. Total RNA from three distinct Wilm's tumors with known outcomes to Ispinesib mesylate (2-3 replicates) inhibition was labeled using a 5 μg protocol and hybridized to the HG-U133A Affymetrix® array. Baseline gene expression differences between tumors resistant (WT7 and WT8) and sensitive (WT10) to Ispinesib mesylate were compared. […] Validation by QPCR of the same tumors confirmed this expression pattern.

[2] = tested on: Wilm's tumor WT10 xenograft; assay: Outcome of human Wilm's tumor xenograft WT10 to KSP inhibitor; format: in vivo; details: Wilm's tumor xenograft WT10, known outcome
Procedure: as §1

MX1 (breast cancer) = assay: Cell line sensitivity to KSP inhibitor (FACS analysis); format: cell-based; details: MX1 cells
Source text: (§2) Baseline expression of HSPA1a was validated in 4 cell lines: MX1 (breast cancer) and MV522 (lung cancer) resistant to Ispinesib mesylate and Colo201 (colon cancer) and Colo205 (colon cancer) sensitive to Ispinesib mesylate inhibition. Like the tumors, HSPA1a expression differentiated the resistant cell lines from the sensitive cell lines.
(§3) A more extensive list of preclinical cell lines compared with those presented in Example 2, including cell lines from both solid and liquid tumors, was analyzed. Again, these cell lines were previously determined to be either resistant or sensitive to Ispinesib mesylate using FACS analysis. […] Of the 22 cell lines analyzed, HSPA1a expression levels were correctly able to classify 19 cell lines as resistant or sensitive to the KSP inhibitor. The HSPA1a marker misclassified 2 cell lines Daudi and HCT116 as sensitive (due to low baseline expression in these cells) and HeLaS3 cell line as resistant (due to high baseline expression of HSPA1a in these cells).

MV522 (lung cancer) = assay: as above; format: cell-based; details: MV522 cells
Source text: as §2, §3

Colo201 (colon cancer) = assay: as above; format: cell-based; details: Colo201 cells
Source text: as §2, §3

Colo205 (colon cancer) = assay: as above; format: cell-based; details: Colo205 cells
Source text: as §2, §3

[3] = tested on: Wilm's tumor WT7 xenograft; assay: Outcome of human Wilm's tumor xenograft WT7 to KSP inhibitor; format: in vivo; details: Wilm's tumor xenograft WT7, known outcome
Procedure: as §1

KSP = molecular target: T1, KSP (Homo sapiens, UniProt P52732); details: literature statement; cited from earlier work
T1 sequence (P52732 1-1056): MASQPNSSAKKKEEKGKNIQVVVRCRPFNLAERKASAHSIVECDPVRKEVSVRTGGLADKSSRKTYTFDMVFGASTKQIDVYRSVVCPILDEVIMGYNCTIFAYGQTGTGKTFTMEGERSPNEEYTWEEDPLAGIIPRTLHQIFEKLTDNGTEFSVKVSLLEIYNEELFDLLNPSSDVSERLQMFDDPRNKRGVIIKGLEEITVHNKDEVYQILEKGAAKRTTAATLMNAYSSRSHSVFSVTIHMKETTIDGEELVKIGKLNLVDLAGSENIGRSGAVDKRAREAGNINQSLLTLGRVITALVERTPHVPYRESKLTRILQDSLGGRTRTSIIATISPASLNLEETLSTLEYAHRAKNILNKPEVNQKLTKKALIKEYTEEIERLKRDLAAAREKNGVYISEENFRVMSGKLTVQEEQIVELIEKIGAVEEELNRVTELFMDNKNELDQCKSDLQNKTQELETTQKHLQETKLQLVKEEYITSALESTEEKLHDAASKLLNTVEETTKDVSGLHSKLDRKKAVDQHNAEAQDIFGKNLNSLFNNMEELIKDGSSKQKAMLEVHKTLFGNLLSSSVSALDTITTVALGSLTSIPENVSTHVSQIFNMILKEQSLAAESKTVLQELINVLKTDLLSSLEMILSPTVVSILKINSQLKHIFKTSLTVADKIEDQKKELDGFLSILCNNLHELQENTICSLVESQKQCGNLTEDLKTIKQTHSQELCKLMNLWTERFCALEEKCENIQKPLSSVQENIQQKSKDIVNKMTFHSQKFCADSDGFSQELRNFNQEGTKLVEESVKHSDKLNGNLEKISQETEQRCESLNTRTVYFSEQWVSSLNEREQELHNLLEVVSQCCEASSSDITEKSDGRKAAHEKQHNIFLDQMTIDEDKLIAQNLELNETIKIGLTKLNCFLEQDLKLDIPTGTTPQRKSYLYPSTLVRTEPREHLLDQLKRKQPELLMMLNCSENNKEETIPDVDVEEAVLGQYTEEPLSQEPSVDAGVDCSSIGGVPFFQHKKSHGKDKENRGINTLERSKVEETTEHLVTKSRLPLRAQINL

With `Cc1ccc(C(=O)N(CCCN)[C@@H](c2nc3cc(Cl)ccc3c(=O)n2Cc2ccccc2)C(C)C)cc1` [Ispinesib mesylate] the “tumor resistant or sensitive to the compound” value (shortened to “tumor resistant or sensitive”) [1] was “resistant”, the “tumor resistant or sensitive” value [2] was “sensitive” and the “cell line resistant or sensitive to the compound” value (from here on “cell line resistant or sensitive”) (MX1 (breast cancer)) was “resistant”. For the same compound, the “cell line resistant or sensitive” value (MV522 (lung cancer)) was “resistant”, the “cell line resistant or sensitive” value (Colo201 (colon cancer)) was “sensitive” and the “cell line resistant or sensitive” value (Colo205 (colon cancer)) was “sensitive”. For the same compound, the “tumor resistant or sensitive” value [3] was “resistant” and the “inhibition of KSP (in words)” value (KSP) was “potent and selective inhibitor of KSP”.
